# Laboratory results published in patent publication US20150313922A1, “COMPOSITIONS AND METHODS FOR THE TREATMENT OF CANCERS ASSOCIATED WITH A DEFICIENCY IN THE MRE11/RAD50/NBS1 DNA DAMAGE REPAIR COMPLEX” (SLOAN-KETTERING INSTITUTE FOR CANCER RESEARCH, priority 2012, published 2015).
# System: murine embryonic fibroblast cells that express a low level of Mre11 (Mre11-impaired; Mre11^ATLD1/ATLD1)
# Test: Colony formation of Mre11-impaired vs WT murine embryonic fibroblasts exposed to DNA damaging agents
# Format: cell-based
# Details: Mre11^ATLD1/ATLD1 vs WT murine embryonic fibroblasts; mean of triplicate samples
row,Compound,susceptibility (proportion colony formation vs. concentration) of Mre11-impaired cells as compared to WT cells
1,"COc1cccc2c1C(=O)c1c(O)c3c(c(O)c1C2=O)C[C@@](O)(C(=O)CO)C[C@@H]3O[C@H]1C[C@H](N)[C@H](O)[C@H](C)O1 [Adriamycin, doxorubicin]",equivalent response

# Same assay, conditions: summary statement of the description
row,Compound,growth and/or survival inhibition of a cell having a reduced level of MRN complex formation and/or functionality
1,"COc1cccc2c1C(=O)c1c(O)c3c(c(O)c1C2=O)C[C@@](O)(C(=O)CO)C[C@@H]3O[C@H]1C[C@H](N)[C@H](O)[C@H](C)O1 [Adriamycin, doxorubicin]",no effect

# System: cancer cells exhibiting reduced MRN complex formation and/or functionality
# Test: Growth and/or survival inhibition of cancer cells with reduced MRN complex by clastogenic agents
# Format: cell-based
# Details: not given
row,Compound,sensitivity to growth and/or survival inhibition
1,O=P1(N(CCCl)CCCl)NCCCO1 (stereo not shown) [cyclophosphamide],increased sensitivity

# Same assay, conditions: cancer cells with reduced MRN complex formation and/or functionality; no experiment described
row,Compound,sensitivity to growth and/or survival inhibition
1,N.N.O=C([O-])C1(C(=O)[O-])CCC1.[Pt+2] [carboplatin],increased sensitivity
2,"COS(C)(=O)=O [methymethanesulfate, methyl methanesulfonate]",increased sensitivity
3,"CC[C@@]1(O)C(=O)OCc2c1cc1n(c2=O)Cc2cc3ccccc3nc2-1 [campththecin, camptothecin]",increased sensitivity
4,"COc1cccc2c1C(=O)c1c(O)c3c(c(O)c1C2=O)C[C@@](O)(C(=O)CO)C[C@@H]3O[C@H]1C[C@H](N)[C@H](O)[C@H](C)O1 [Adriamycin, doxorubicin]",do not exhibit increased sensitivity
5,CCc1c2c(nc3ccc(OC(=O)N4CCC(N5CCCCC5)CC4)cc13)-c1cc3c(c(=O)n1C2)COC(=O)[C@]3(O)CC [irinotecan],increased sensitivity
6,CCCCC(=O)OCC(=O)[C@]1(O)Cc2c(O)c3c(c(O)c2[C@@H](O[C@H]2C[C@H](NC(=O)C(F)(F)F)[C@H](O)[C@H](C)O2)C1)C(=O)c1c(OC)cccc1C3=O [valrubicin],do not exhibit increased sensitivity
7,CC(=O)[C@]1(O)Cc2c(O)c3c(c(O)c2[C@@H](O[C@H]2C[C@H](N)[C@H](O)[C@H](C)O2)C1)C(=O)c1ccccc1C3=O [idarubicin],do not exhibit increased sensitivity
8,COc1cccc2c1C(=O)c1c(O)c3c(c(O)c1C2=O)C[C@@](O)(C(=O)CO)C[C@@H]3O[C@H]1C[C@H](N)[C@@H](O)[C@H](C)O1 [epirubicin],do not exhibit increased sensitivity
9,CO[C@@]12[C@H](COC(N)=O)C3=C(C(=O)C(C)=C(N)C3=O)N1C[C@@H]1N[C@@H]12 [mitomycin C],increased sensitivity
10,COc1cccc2c1C(=O)c1c(O)c3c(c(O)c1C2=O)C[C@@](O)(C(C)=O)C[C@@H]3O[C@H]1C[C@H](N)[C@H](O)[C@H](C)O1 [daunorubicin],do not exhibit increased sensitivity
11,CC[C@@]1(O)C(=O)OCc2c1cc1n(c2=O)Cc2cc3c(CN(C)C)c(O)ccc3nc2-1 [topotecan],increased sensitivity
12,O=C1c2c(O)ccc(O)c2C(=O)c2c(NCCNCCO)ccc(NCCNCCO)c21 [mitoxantrone],do not exhibit increased sensitivity
13,N.N.[Cl][Pt][Cl] [cisplatin],increased sensitivity
